Literature values as cited in paper PMC9851200, “Multiparameter phenotypic screening for endogenous TFEB and TFE3 translocation identifies novel chemical series modulating lysosome function” (Autophagy, 2022).

How the values were obtained:
Design in all cases: method as in original PKIS2 published data
[1] = biological target: T1, kinases (KINOMEscan panel) (Homo sapiens, UniProt O15111); details: cited from earlier work
T1 sequence (O15111 1-745): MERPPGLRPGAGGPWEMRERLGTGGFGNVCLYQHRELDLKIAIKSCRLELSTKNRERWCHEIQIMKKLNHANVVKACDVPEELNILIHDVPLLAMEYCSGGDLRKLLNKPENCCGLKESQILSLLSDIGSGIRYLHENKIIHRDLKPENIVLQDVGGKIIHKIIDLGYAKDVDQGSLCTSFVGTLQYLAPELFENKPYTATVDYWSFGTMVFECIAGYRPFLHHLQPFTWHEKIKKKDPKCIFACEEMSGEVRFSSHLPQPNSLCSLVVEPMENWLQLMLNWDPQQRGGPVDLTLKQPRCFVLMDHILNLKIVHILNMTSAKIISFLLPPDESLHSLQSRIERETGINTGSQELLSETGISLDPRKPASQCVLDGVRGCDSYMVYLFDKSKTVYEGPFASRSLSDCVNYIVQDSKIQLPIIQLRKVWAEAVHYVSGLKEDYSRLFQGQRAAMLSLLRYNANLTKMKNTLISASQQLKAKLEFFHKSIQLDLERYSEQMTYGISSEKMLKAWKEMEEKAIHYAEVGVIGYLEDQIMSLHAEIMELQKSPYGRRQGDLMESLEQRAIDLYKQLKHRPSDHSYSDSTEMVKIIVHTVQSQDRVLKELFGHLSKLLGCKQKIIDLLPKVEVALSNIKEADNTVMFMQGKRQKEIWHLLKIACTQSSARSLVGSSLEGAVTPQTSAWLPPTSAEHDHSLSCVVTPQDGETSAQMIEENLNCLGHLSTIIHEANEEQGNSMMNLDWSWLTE

[2] = biological target: kinases (KINOMEscan panel) (Homo sapiens, UniProt O75460); details: Published KINOMEscan; ref original PKIS2 published data; cited from earlier work
[3] = biological target: kinases (KINOMEscan panel) (Homo sapiens, UniProt O94921); details: Published KINOMEscan; ref original PKIS2 published data; cited from earlier work
[4] = biological target: kinases (KINOMEscan panel) (Homo sapiens, UniProt O96013); details: PAK4; Published KINOMEscan; ref original PKIS2 published data; cited from earlier work
[5] = biological target: kinases (KINOMEscan panel) (Homo sapiens, UniProt P09769); details: FGR; Published KINOMEscan; ref original PKIS2 published data; cited from earlier work
[6] = biological target: kinases (KINOMEscan panel) (Homo sapiens, UniProt P36894); details: kinase BMPR1A; Published KINOMEscan; ref original PKIS2 published data; cited from earlier work
[7] = biological target: T2, kinases (KINOMEscan panel) (Homo sapiens, UniProt Q6ZWH5); details: Published KINOMEscan; ref original PKIS2 published data; cited from earlier work
T2 sequence (Q6ZWH5 1-1172): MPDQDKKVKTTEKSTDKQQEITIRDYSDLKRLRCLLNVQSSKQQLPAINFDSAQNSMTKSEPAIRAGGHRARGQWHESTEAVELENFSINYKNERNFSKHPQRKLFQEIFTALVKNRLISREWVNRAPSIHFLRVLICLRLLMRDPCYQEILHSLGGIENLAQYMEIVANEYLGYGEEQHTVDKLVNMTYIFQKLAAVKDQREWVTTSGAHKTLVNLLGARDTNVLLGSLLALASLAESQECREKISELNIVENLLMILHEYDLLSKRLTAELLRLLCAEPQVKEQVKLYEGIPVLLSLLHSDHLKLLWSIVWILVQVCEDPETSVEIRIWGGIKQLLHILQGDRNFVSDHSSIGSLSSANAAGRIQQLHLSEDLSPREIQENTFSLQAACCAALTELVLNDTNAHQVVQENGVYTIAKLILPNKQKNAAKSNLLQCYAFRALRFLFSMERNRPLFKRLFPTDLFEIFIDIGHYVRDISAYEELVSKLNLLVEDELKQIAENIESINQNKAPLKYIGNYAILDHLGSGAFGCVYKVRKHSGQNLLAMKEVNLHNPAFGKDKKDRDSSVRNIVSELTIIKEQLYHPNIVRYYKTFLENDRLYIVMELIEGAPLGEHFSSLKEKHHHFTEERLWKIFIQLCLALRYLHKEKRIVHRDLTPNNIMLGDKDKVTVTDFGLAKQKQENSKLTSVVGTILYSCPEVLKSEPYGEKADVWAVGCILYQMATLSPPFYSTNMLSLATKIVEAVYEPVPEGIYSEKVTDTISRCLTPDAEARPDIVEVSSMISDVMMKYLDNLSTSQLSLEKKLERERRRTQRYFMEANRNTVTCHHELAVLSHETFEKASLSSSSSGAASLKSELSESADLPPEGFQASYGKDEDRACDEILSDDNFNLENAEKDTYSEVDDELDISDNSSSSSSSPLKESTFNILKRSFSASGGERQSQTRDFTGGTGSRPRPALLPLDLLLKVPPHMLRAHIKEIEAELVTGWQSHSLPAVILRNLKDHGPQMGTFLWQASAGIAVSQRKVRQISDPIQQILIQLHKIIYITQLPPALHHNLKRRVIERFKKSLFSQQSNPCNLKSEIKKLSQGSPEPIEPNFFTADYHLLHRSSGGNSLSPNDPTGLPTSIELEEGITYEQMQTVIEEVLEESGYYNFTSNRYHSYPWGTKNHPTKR

[8] = biological target: kinases (KINOMEscan panel) (Homo sapiens, UniProt Q9H422); details: kinase HIPK3; Published KINOMEscan; ref original PKIS2 published data; cited from earlier work
kinases (KINOMEscan panel) (Homo sapiens, UniProt Q9H422), sequence (Q9H422 whole entry): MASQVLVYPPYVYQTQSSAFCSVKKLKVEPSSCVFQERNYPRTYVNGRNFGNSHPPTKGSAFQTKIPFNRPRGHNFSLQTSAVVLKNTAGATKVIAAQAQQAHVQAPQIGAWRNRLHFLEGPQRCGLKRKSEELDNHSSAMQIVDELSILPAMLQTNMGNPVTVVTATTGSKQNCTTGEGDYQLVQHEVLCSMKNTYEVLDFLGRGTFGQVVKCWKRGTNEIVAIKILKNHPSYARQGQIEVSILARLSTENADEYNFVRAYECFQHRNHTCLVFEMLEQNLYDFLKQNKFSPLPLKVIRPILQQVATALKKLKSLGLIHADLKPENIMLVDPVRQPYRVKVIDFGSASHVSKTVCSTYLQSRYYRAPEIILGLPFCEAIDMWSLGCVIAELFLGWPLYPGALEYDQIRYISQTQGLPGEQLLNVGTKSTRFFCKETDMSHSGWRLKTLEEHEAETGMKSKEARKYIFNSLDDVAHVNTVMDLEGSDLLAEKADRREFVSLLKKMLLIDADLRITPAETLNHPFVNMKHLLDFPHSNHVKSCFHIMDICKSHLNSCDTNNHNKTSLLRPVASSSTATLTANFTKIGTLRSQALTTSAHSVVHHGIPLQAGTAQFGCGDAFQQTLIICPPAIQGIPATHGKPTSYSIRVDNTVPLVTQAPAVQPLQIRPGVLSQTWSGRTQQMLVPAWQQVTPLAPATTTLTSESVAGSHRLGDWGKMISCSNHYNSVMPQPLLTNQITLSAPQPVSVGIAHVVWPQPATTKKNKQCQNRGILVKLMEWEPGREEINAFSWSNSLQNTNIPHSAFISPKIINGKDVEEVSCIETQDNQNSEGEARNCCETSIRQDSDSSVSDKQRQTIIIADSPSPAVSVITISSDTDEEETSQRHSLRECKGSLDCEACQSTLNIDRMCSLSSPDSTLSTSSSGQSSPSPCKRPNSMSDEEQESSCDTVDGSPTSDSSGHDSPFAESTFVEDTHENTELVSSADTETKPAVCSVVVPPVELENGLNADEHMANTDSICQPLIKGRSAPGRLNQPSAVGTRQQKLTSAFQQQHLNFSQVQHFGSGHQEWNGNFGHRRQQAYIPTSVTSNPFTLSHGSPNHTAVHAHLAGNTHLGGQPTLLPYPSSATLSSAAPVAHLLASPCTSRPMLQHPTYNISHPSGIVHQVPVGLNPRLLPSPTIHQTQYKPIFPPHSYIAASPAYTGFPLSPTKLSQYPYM

kinases (KINOMEscan panel) (Homo sapiens, UniProt P36894), sequence (P36894 24-532): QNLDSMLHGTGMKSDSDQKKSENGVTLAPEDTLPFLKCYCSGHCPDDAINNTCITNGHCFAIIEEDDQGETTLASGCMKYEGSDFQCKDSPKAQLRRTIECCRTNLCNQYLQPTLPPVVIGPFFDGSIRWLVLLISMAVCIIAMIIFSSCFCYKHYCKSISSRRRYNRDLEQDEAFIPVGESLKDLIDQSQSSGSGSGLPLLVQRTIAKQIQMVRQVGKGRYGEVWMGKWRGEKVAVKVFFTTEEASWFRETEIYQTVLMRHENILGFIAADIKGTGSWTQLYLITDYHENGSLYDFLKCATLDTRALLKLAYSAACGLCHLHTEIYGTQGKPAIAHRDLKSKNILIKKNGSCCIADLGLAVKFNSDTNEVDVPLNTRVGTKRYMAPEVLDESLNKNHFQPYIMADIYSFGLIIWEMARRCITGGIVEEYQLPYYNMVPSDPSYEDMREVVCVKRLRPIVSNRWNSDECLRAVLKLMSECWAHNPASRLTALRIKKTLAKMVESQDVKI
kinases (KINOMEscan panel) (Homo sapiens, UniProt O96013), sequence (O96013 whole entry): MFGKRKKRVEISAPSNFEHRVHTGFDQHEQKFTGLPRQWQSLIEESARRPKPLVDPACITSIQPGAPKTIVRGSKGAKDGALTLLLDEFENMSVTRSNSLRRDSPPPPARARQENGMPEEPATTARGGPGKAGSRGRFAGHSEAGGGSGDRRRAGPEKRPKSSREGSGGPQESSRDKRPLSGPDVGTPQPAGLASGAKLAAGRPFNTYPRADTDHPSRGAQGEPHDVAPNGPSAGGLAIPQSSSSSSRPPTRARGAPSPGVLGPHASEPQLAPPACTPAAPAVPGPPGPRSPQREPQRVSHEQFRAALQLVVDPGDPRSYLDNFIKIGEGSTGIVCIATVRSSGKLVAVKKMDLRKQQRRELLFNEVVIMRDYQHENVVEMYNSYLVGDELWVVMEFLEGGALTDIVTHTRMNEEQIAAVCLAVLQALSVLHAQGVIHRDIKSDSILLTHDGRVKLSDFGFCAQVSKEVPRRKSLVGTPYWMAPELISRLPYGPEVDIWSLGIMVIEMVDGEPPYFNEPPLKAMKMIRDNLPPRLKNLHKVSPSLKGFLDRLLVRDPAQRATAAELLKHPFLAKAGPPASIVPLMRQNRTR
kinases (KINOMEscan panel) (Homo sapiens, UniProt O94921), sequence (O94921 whole entry): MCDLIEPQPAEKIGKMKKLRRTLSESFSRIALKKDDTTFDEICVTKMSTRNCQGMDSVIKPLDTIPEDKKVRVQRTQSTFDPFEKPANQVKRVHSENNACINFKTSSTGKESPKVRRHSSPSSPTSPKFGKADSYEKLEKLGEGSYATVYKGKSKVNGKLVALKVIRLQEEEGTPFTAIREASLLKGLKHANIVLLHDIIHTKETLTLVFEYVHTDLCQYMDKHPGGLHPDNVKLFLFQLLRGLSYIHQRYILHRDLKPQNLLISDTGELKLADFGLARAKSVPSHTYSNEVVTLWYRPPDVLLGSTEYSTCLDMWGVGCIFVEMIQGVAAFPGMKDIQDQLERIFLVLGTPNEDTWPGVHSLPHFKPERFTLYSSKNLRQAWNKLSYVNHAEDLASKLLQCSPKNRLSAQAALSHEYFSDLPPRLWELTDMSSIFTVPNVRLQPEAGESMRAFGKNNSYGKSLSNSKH
kinases (KINOMEscan panel) (Homo sapiens, UniProt P09769), sequence (P09769 whole entry): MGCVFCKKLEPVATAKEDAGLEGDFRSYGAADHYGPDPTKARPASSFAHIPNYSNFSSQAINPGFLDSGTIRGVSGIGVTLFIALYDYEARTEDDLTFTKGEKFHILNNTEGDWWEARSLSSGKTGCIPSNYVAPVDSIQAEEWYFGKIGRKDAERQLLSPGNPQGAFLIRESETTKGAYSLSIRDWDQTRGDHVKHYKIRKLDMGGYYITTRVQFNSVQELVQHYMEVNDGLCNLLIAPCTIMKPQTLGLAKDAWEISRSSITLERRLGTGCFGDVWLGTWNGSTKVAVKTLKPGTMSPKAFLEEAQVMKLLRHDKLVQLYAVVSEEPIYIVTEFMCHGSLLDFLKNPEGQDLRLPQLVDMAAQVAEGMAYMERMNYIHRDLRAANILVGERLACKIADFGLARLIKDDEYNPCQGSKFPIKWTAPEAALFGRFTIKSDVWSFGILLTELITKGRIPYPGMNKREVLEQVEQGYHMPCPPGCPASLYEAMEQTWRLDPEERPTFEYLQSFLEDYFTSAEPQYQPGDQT
kinases (KINOMEscan panel) (Homo sapiens, UniProt O75460), sequence (O75460 19-977): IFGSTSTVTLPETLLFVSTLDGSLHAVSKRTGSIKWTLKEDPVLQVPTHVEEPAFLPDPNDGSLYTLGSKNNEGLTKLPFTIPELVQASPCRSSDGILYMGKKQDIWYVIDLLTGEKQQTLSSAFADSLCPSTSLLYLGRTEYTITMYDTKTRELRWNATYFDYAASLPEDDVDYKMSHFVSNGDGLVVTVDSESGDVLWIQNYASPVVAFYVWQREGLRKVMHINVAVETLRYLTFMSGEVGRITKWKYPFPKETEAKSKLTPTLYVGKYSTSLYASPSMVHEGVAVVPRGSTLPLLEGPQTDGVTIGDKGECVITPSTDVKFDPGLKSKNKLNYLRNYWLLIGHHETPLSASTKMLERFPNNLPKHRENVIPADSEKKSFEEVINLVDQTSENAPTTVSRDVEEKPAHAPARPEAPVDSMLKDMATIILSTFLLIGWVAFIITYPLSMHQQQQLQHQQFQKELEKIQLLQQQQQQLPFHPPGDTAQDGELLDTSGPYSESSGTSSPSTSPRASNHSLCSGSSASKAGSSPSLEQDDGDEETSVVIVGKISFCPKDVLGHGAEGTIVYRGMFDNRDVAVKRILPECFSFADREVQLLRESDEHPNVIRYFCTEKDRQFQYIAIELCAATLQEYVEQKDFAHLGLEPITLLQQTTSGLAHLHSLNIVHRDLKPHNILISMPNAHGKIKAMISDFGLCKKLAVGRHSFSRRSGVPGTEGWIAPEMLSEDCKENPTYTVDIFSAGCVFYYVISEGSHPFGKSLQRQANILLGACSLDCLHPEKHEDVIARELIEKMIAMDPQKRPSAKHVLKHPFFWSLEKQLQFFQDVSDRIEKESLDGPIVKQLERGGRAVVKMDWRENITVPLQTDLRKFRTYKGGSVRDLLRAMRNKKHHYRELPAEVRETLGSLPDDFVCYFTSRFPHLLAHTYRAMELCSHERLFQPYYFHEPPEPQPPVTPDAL

Cc1cccc(-c2nc(Nc3ccncc3)c3ccccc3n2)n1 [NK215]
KINOMEscan CHUK/IKK-alpha [1]: 0 | KINOMEscan ERN1 [2]: 0 | KINOMEscan CDK14 [3]: 0 | KINOMEscan PAK4 [4]: 0 | KINOMEscan FGR [5]: 31 | KINOMEscan BMPR1A [6]: 0 | KINOMEscan NEK10 [7]: 0 | KINOMEscan HIPK3 [8]: 0
